Experimental data: ChEMBL document CHEMBL4715901, “Degradation of Signal Transducer and Activator of Transcription Proteins in Cancer Therapeutics” (ACS Med Chem Lett, 2021)

Assays:
[1] = target: Protein cereblon/Signal transducer and activator of transcription 3 (Homo sapiens, UniProt P40763+Q96SW2); test: Protac activity at E3 ubiquitin ligase/STAT3 in human MOLM-16 cells assessed as degradation of STAT3 incubated for 4 hrs by fluorescent immunoblotting analysis; assay type: cell-based
[2] = target: Protein cereblon/Signal transducer and activator of transcription 1-alpha/beta (Homo sapiens, UniProt P42224+Q96SW2); test: Protac activity at E3 ubiquitin ligase/STAT1 in human MOLM-16 cells assessed as degradation of STAT1 incubated for 4 hrs by fluorescent immunoblotting analysis; assay type: cell-based
Protein cereblon/Signal transducer and activator of transcription 1-alpha/beta, sequence (P42224 whole entry): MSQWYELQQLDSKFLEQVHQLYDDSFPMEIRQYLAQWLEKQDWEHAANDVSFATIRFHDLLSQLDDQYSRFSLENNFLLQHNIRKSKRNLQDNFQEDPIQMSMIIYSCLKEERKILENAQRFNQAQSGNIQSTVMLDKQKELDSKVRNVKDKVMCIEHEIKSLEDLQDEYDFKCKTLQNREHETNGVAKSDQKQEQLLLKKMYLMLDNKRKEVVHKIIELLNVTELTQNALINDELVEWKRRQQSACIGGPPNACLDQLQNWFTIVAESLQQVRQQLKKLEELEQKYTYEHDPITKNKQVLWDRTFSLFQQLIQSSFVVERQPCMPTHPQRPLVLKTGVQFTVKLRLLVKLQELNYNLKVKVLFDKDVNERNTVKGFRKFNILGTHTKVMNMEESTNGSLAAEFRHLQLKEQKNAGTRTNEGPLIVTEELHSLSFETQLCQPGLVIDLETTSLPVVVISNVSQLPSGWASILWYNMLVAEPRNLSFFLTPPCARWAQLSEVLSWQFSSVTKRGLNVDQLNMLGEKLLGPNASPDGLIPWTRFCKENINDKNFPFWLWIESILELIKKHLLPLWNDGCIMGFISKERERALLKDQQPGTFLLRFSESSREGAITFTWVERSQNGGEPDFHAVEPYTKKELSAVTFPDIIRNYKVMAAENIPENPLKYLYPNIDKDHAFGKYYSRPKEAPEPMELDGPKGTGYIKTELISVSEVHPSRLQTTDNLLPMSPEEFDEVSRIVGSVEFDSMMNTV
Protein cereblon/Signal transducer and activator of transcription 1-alpha/beta, sequence (Q96SW2 whole entry): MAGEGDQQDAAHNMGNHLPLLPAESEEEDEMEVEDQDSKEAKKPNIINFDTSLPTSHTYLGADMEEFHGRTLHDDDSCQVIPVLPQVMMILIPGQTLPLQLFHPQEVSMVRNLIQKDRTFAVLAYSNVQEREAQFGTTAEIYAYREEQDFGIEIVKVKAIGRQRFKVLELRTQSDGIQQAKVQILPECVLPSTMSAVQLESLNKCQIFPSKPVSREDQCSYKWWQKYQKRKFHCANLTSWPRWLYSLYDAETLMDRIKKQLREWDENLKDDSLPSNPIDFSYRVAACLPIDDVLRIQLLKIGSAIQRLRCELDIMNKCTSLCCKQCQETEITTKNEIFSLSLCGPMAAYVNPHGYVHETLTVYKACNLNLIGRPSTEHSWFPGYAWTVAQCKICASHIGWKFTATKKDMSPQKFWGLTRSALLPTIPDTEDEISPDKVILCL

Protein cereblon/Signal transducer and activator of transcription 3, sequence (P40763 whole entry): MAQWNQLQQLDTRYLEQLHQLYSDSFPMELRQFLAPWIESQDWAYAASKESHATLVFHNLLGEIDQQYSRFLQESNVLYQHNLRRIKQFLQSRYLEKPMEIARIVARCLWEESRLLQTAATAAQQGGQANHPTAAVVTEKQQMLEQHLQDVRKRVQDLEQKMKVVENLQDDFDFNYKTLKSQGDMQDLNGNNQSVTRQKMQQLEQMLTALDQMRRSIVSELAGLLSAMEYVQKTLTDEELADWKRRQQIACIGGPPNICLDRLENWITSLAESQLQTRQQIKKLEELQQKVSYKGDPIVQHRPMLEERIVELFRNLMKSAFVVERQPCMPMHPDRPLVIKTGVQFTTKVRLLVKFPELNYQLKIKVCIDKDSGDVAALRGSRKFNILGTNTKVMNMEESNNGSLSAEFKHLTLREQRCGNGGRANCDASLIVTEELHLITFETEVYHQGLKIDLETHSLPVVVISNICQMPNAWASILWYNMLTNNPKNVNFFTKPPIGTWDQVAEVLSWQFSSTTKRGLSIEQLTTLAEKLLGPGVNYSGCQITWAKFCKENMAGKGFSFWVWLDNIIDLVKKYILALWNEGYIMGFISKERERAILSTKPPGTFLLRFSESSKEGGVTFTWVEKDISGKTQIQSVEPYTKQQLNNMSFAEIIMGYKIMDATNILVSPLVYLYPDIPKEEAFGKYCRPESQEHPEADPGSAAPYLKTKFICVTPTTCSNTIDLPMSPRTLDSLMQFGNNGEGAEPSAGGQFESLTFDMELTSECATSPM
Protein cereblon/Signal transducer and activator of transcription 3, sequence (Q96SW2 whole entry): as the sequence (Q96SW2 whole entry) above

## CC(C)(C)c1ccc(C[C@H](NC(=O)[C@H](CCC(N)=O)NC(=O)[C@@H]2CC[C@@H]3CCN(CC(F)F)C[C@H](NC(=O)c4cc5cc(C(F)(F)P(=O)(O)O)ccc5s4)C(=O)N32)C(=O)N2CCC(CCC#Cc3cccc4c3CN(C3CCC(=O)NC3=O)C4=O)CC2)cc1 (some centres not stated)
[1]
  DC50: < 250 nM
[2]
  DC50: < 250 nM

## CCN1CC[C@H]2CC[C@@H](C(=O)N[C@@H](CCC(N)=O)C(=O)N[C@@H](Cc3ccc(NS(=O)(=O)c4ccc(C)cc4)cc3)C(=O)N3CCC(CCC#Cc4cccc5c4CN(C4CCC(=O)NC4=O)C5=O)CC3)N2C(=O)[C@@H](NC(=O)c2cc3cc(C(F)(F)P(=O)(O)O)ccc3s2)C1 (some centres not stated)
[1]
  DC50: < 250 nM
[2]
  DC50: 250 nM

## CCN1CC[C@H]2CC[C@@H](C(=O)N[C@@H](CCC(N)=O)C(=O)N[C@@H](Cc3ccc(S(=O)(=O)c4ccccc4)cc3)C(=O)N3CCC(CCC#Cc4cccc5c4CN(C4CCC(=O)NC4=O)C5=O)CC3)N2C(=O)[C@@H](NC(=O)c2cc3cc(C(F)(F)P(=O)(O)O)ccc3s2)C1 (some centres not stated)
[1]
  DC50: < 250 nM
[2]
  DC50: 250 nM

## COC(=O)N1CC[C@H]2CC[C@@H](C(=O)N[C@@H](CCC(N)=O)C(=O)N[C@@H](Cc3ccc(C(C)(C)C)cc3)C(=O)N3CCC(CCC#Cc4cccc5c4CN(C4CCC(=O)NC4=O)C5=O)CC3)N2C(=O)[C@@H](NC(=O)c2cc3cc(C(F)(F)P(=O)(O)O)ccc3s2)C1 (some centres not stated)
[1]
  DC50: < 250 nM
[2]
  DC50: 250 nM

## CCN1CC[C@H]2CC[C@@H](C(=O)N[C@@H](CCC(N)=O)C(=O)N[C@@H](Cc3ccc(S(=O)(=O)C4CC4)cc3)C(=O)N3CCC(CCC#Cc4cccc5c4CN(C4CCC(=O)NC4=O)C5=O)CC3)N2C(=O)[C@@H](NC(=O)c2cc3cc(C(F)(F)P(=O)(O)O)ccc3s2)C1 (some centres not stated)
[1]
  DC50: < 250 nM
[2]
  DC50: 500 nM

## CCN1CC[C@H]2CC[C@@H](C(=O)N[C@@H](CNC(N)=O)C(=O)N[C@@H](Cc3ccc(C(C)(C)C)cc3)C(=O)N3CCC(CCC#Cc4cccc5c4CN(C4CCC(=O)NC4=O)C5=O)CC3)N2C(=O)[C@@H](NC(=O)c2cc3cc(C(F)(F)P(=O)(O)O)ccc3s2)C1 (some centres not stated)
[1]
  DC50: < 250 nM
[2]
  DC50: > 1000 nM
